Data: PubChem BioAssay (NCI)
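Grown in 96-well plates, cells were treated for 48 hours with each compound at five concentrations. Insufficient inhibition: endpoint recorded as highest concentration tested. GI50 = concentration required for 50% inhibition of growth. TGI: total growth inhibition.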

Key:
Experiment in all cases: NCI tumour cell line growth inhibition, 48 h
MOLT-4 leukemia = tested on: MOLT-4 leukemia
SW-620 colon = tested on: SW-620 colon
HCC-2998 colon = tested on: HCC-2998 colon
K-562 leukemia = tested on: K-562 leukemia
KM12 colon = tested on: KM12 colon
SNB-75 CNS = tested on: SNB-75 CNS
SK-OV-3 ovarian = tested on: SK-OV-3 ovarian
CCRF-CEM leukemia = tested on: CCRF-CEM leukemia
SK-MEL-28 melanoma = tested on: SK-MEL-28 melanoma
DU-145 prostate = tested on: DU-145 prostate
OVCAR-3 ovarian = tested on: OVCAR-3 ovarian
UACC-62 melanoma = tested on: UACC-62 melanoma
OVCAR-4 ovarian = tested on: OVCAR-4 ovarian

| SMILES | TGI (MOLT-4 leukemia) | TGI (SW-620 colon) | TGI (HCC-2998 colon) | TGI (K-562 leukemia) | TGI (KM12 colon) | TGI (SNB-75 CNS) | TGI (SK-OV-3 ovarian) | TGI (CCRF-CEM leukemia) | TGI (SK-MEL-28 melanoma) | TGI (DU-145 prostate) | TGI (OVCAR-3 ovarian) | GI50 (UACC-62 melanoma) | TGI (UACC-62 melanoma) | TGI (OVCAR-4 ovarian) |
| --- | --- | --- | --- | --- | --- | --- | --- | --- | --- | --- | --- | --- | --- | --- |
| O=C1CN(c2cccc(C(F)(F)F)c2)C(=O)CN1NCNN1CC(=O)N(c2cccc(C(F)(F)F)c2)CC1=O | > 100 µM | > 100 µM | > 100 µM | > 100 µM | > 100 µM | > 100 µM | > 100 µM | > 100 µM | > 100 µM | – | – | – | – | – |
| CC(=O)O[C@H]1CC[C@H]2[C@@H]3CCc4cc(O)c(I)cc4[C@H]3CC[C@]12C | 61.6 µM | 27.7 µM | 32.2 µM | > 100 µM | 28.3 µM | 26.2 µM | 29.1 µM | – | 29.6 µM | 28.7 µM | 31.4 µM | 12 µM | 24.4 µM | 28 µM |
| Cc1ccc(S(=O)(=O)Nn2c(-c3ccccc3)c(C#N)c(-c3ccc(Cl)cc3)c(C#N)c2=O)cc1 | 52.8 µM | > 100 µM | > 100 µM | > 100 µM | – | – | > 100 µM | 60.4 µM | 78.5 µM | – | – | – | 33 µM | > 100 µM |
| O=C1CCC(=O)N1CNc1ccc2c(c1)Sc1ccccc1O2 | > 100 µM | > 100 µM | – | > 100 µM | > 100 µM | – | – | > 100 µM | > 100 µM | > 100 µM | 75 µM | – | > 100 µM | > 100 µM |
| COC(=O)c1cc(C)ccc1/C=C1\Cc2cc(C)c(C)cc2C1=O | > 100 µM | > 100 µM | > 100 µM | > 100 µM | > 100 µM | 69.5 µM | – | – | > 100 µM | > 100 µM | > 100 µM | – | > 100 µM | > 100 µM |
| Cc1cc(Cl)nc(NC(=O)CSc2ccc(Cl)cc2)n1 | > 100 µM | > 100 µM | > 100 µM | > 100 µM | > 100 µM | – | – | > 100 µM | > 100 µM | > 100 µM | > 100 µM | – | > 100 µM | – |
| CN1C(=O)n2c(nc3ccccc32)C(N=[N+]=[N-])(N=[N+]=[N-])C1=O (centres undefined) | > 100 µM | > 100 µM | > 100 µM | > 100 µM | > 100 µM | > 100 µM | > 100 µM | > 100 µM | > 100 µM | – | > 100 µM | – | > 100 µM | > 100 µM |
| CN(C(=O)OC(C)(C)C)[C@H]1CCCC[C@H]1N1CCCC1 | > 100 µM | > 100 µM | – | > 100 µM | > 100 µM | – | > 100 µM | > 100 µM | > 100 µM | > 100 µM | > 100 µM | – | > 100 µM | > 100 µM |
| CS(=O)(=O)c1nc(N)nc2nc[nH]c12 | > 100 µM | > 100 µM | > 100 µM | > 100 µM | > 100 µM | – | > 100 µM | > 100 µM | > 100 µM | – | > 100 µM | – | > 100 µM | > 100 µM |
| O=C(OCc1ccccc1)N1CCNCCNCC1 | > 100 µM | > 100 µM | > 100 µM | > 100 µM | > 100 µM | – | – | > 100 µM | > 100 µM | > 100 µM | > 100 µM | – | > 100 µM | > 100 µM |
| CCCCCCCCCCCCCCCCOP(=O)(O)OP(=O)(O)OCC1OC(n2ccc(N)nc2=O)CC1O (centres undefined) | > 100 µM | > 100 µM | > 100 µM | > 100 µM | > 100 µM | > 100 µM | > 100 µM | > 100 µM | > 100 µM | – | > 100 µM | – | > 100 µM | > 100 µM |
| CCOC(=O)C(NNS(=O)(=O)c1ccc(C)cc1)S(=O)(=O)C(F)(F)C(F)(F)C(F)(F)C(F)(F)F (centres undefined) | > 100 µM | > 100 µM | > 100 µM | > 100 µM | > 100 µM | > 100 µM | > 100 µM | – | > 100 µM | > 100 µM | > 100 µM | – | > 100 µM | > 100 µM |
| CC(C#N)c1cn(S(=O)(=O)c2ccccc2)c2ccccc12 (centres undefined) | > 100 µM | > 100 µM | > 100 µM | > 100 µM | > 100 µM | 38.2 µM | – | > 100 µM | > 100 µM | – | > 100 µM | – | > 100 µM | > 100 µM |
| C[C@]12CCC3c4ccc(OC(=O)c5ccccc5)cc4CC[C@H]3C1CC[C@@H]2OC(=O)C12OC1CCC2=O (some centres undefined) | 5.78 µM | 4.86 µM | > 71.9 µM | 5.06 µM | 13.6 µM | 19.1 µM | 33.4 µM | 5.39 µM | 10.7 µM | – | 8.82 µM | – | 38.4 µM | 10.6 µM |
| CCN1C(C)=NC2C(=O)c3ccccc3C(=O)C21 (centres undefined) | > 100 µM | > 100 µM | 79.3 µM | > 100 µM | – | > 100 µM | – | > 100 µM | > 100 µM | – | > 100 µM | – | > 100 µM | 62.7 µM |
| CCOC(=O)Cc1ccc(Nc2nc3cc(C(F)(F)F)ccc3nc2C(=O)OCC)cc1 | > 100 µM | > 100 µM | – | – | > 100 µM | 48.2 µM | > 100 µM | – | > 100 µM | > 100 µM | > 100 µM | – | > 100 µM | > 100 µM |
